Here are results for 20 substances from patent publication US20190315823A1, “SMALL CATIONIC ANTI-BIOFILM AND IDR PEPTIDES” (priority 2013, published 2019).

Ends that are not written are not given here.

The test system of assay [1] is LPS-stimulated human peripheral blood mononuclear cells (IL1-β). Format: cell-based. To be noted: Table 12, cells stimulated with 10 ng/ml LPS; for IL1β Production: LPS alone 1313 (HH2 derivatives), 1927 (1018 derivatives), 2455 (1002 and hybrid peptides) pg/ml. As to the method: LPS from P. aeruginosa strain H103 was highly purified free of proteins and lipids using the Darveau-Hancock method. Briefly, P. aeruginosa was grown overnight in LB broth at 37° C. Cells were collected and washed and the isolated LPS pellets were extracted with a 2:1 chloroform:methanol solution to remove contaminating lipids. Purified LPS samples were quantitated using an assay for the specific sugar 2-keto-3-deoxyoctosonic acid (KDO assay) and then resuspended in endotoxin-free water (Sigma-Aldrich).

Assay [2] concerns methicillin resistant Staphylococcus aureus (MRSA) biofilm. The following applies: approximate peptide concentration […] (around 3 μg/ml); compared to untreated samples. As to the method:
Methods of assessment of anti-biofilm activity—Biofilm formation was initially analyzed using a static abiotic solid surface assay as described elsewhere (de la Fuente-Nunez et al., 2012). Dilutions (1/100) of overnight cultures were incubated in BM2 biofilm-adjusted medium [62 mM potassium phosphate buffer (pH 7), 7 mM (NH4)2SO4, 2 mM MgSO4, 10 μM FeSO4, 0.4% (wt/vol) glucose, 0.5% (wt/vol) Casamino Acids], or a nutrient medium such as Luria Broth, in polypropylene microtiter plates (Falcon, United States) in the absence (control) or presence of peptide. Peptide was added at time zero (prior to adding the diluted, overnight cultures) in varying concentrations, and the decrease in biofilm formation was recorded at 22-46 h for most bacteria. Planktonic cells were removed, biofilm cells adhering to the side of the tubes were stained with crystal violet, and absorbance at 595 nm was measured using a microtiter plate reader (Bio-Tek Instruments Inc., United States). Some peptides were screened against two Gram negative organisms, P. aeruginosa and K. pneumoniae using a Bioflux apparatus (AutoMate Scientific, Berkeley, Calif.; http://www.autom8.com/bioflux_biofilm.html), which allows for the high-throughput, real-time analysis of biofilms.

Assay [3] relates to human peripheral blood mononuclear cells (MCP-1). In words: SPOT-synthesized derivative screen: production of chemokine MCP-1. To be noted: Table 12, No LPS, human PBMC, peptide at ~18-24 μM; for MCP1: background subtracted 139 (HH2 derivatives), 170 (1018 derivatives), 242 (1002 and hybrid peptides) pg/ml. Format: cell-based. As to the method: Venous blood (20 ml) from healthy volunteers was collected in Vacutainer® collection tubes containing sodium heparin as an anticoagulant (Becton Dickinson, Mississauga, ON) in accordance with UBC ethical approval and guidelines. Blood was diluted 1:1 with complete RPMI 1640 medium and separated by centrifugation over a Ficoll-Paque® Plus (Amersham Biosciences, Piscataway, N.J., USA) density gradient. White blood cells were isolated from the buffy coat, washed twice in RPMI 1640 complete medium, and the number of peripheral blood mononuclear cells (PBMC) was determined by Trypan blue exclusion. PBMC (5×10^5) were seeded into 12-well tissue culture dishes (Falcon; Becton Dickinson) at 0.75 to 1×10^6 cells/ml at 37° C. in 5% CO2. The above conditions were chosen to mimic conditions for circulating blood monocytes entering tissues at the site of infection via extravasation.
Following incubation of the cells under various treatment regimens, the tissue culture supernatants were centrifuged at 1000×g for 5 min, then at 10,000×g for 2 min to obtain cell-free samples. Supernatants were aliquoted and then stored at −20° C. prior to assay for various chemokines by capture ELISA (eBioscience and BioSource International Inc., CA, USA respectively)

As for “1002-A7: single substituted 1002 peptide (VQRWLIAWRIRK-NH2) [Peptide 1002-A7]”, in assay [1], the “Fold change in IL1β relative to no peptide LPS stimulated cells” value amounted to 0.05 and the “IL1β Production” value was found to be 132 pg/mL. Also, the “% Biofilm inhibition” value in assay [2] came to 58%. In assay [3], the “Fold increase in MCP1 cf. untreated cells” value (shortened to “Fold increase”) was 0.9 and the “MCP1” value is -36.2 pg/mL.

Take “1002-I7: single substituted 1002 peptide (VQRWLIIWRIRK-NH2) [Peptide 1002-I7]”: in assay [1], the “Fold change in IL1β relative to no peptide LPS stimulated cells” value is given as 0.05 and the “IL1β Production” value was 127 pg/mL. Also, the “% Biofilm inhibition” value in assay [2] is on record as 73%. Also, in assay [3], the “Fold increase” value is given as 3.3 and the “MCP1” value came to 557.5 pg/mL.

Regarding “1002-R7: single substituted 1002 peptide (VQRWLIRWRIRK-NH2) [Peptide 1002-R7]”, in assay [1], the “Fold change in IL1β relative to no peptide LPS stimulated cells” value came out at 0.16 and the “IL1β Production” value came out at 382 pg/mL. Besides, the “% Biofilm inhibition” value in assay [2] worked out at 58%. For the same substance, in assay [3], the “Fold increase” value worked out at 2.1 and the “MCP1” value was determined as 270.8 pg/mL.

As to “HH2-A7: single substituted HH2 peptide (VQLRIRAAVIRA-NH2)”, in assay [1], the “Fold change in IL1β relative to no peptide LPS stimulated cells” value is 1.30 and the “IL1β Production” value stood at 1713 pg/mL. For the same substance, the “% Biofilm inhibition” value in assay [2] is reported as 57%. For the same substance, in assay [3], the “Fold increase” value is recorded as 1.3 and the “MCP1” value was found to be 59 pg/mL.

Regarding “HH2-K1: single substituted HH2 peptide (KQLRIRVAVIRA-NH2)”, in assay [1], the “Fold change in IL1β relative to no peptide LPS stimulated cells” value turned out to be 1.08 and the “IL1β Production” value was determined as 1423 pg/mL. Also, in assay [2], the “% Biofilm inhibition” value stood at 55%. In addition, in assay [3], the “Fold increase” value is reported as 6.7 and the “MCP1” value came to 968 pg/mL.

Consider “1018-G4: single substituted 1018 peptide (VRLGVAVRIWRR-NH2) [Peptide 1018-G4]”, for which, in assay [1], the “Fold change in IL1β relative to no peptide LPS stimulated cells” value stood at 0.39 and the “IL1β Production” value came out at 511 pg/mL. Further, the “% Biofilm inhibition” value in assay [2] is 63%. In addition, in assay [3], the “Fold increase” value is listed as 1.2 and the “MCP1” value is 32 pg/mL.

For the substance “HH2-W8: single substituted HH2 peptide (VQLRIRVWVIRA-NH2)”, in assay [1], the “Fold change in IL1β relative to no peptide LPS stimulated cells” value was 0.42 and the “IL1β Production” value was 553 pg/mL. Also, the “% Biofilm inhibition” value in assay [2] is recorded as 75%. Moreover, in assay [3], the “Fold increase” value is 81 and the “MCP1” value came to 13556 pg/mL.

As to “1018-W12: single substituted 1018 peptide (VRLIVAVRIWRW-NH2) [Peptide 1018-W12]”, in assay [1], the “Fold change in IL1β relative to no peptide LPS stimulated cells” value came out at 0.34 and the “IL1β Production” value turned out to be 441 pg/mL. For the same substance, the “% Biofilm inhibition” value in assay [2] is given as 65%. Further, in assay [3], the “Fold increase” value is listed as 1.5 and the “MCP1” value is 79 pg/mL.

As for “1002-G8: single substituted 1002 peptide (VQRWLIVGRIRK-NH2) [Peptide 1002-G8]”, in assay [1], the “Fold change in IL1β relative to no peptide LPS stimulated cells” value came out at 0.28 and the “IL1β Production” value stood at 692 pg/mL. Besides, the “% Biofilm inhibition” value in assay [2] is 42%. Besides, in assay [3], the “Fold increase” value came out at 0.9 and the “MCP1” value is -36.2 pg/mL.

Turning to “1018-G2: single substituted 1018 peptide (VGLIVAVRIWRR-NH2) [Peptide 1018-G2]”, in assay [1], the “Fold change in IL1β relative to no peptide LPS stimulated cells” value was 0.10 and the “IL1β Production” value worked out at 127 pg/mL. The “% Biofilm inhibition” value in assay [2] was determined as 59%. Further, in assay [3], the “Fold increase” value is given as 2.6 and the “MCP1” value was determined as 267 pg/mL.

For “HH2-K10: single substituted HH2 peptide (VQLRIRVAVKRA-NH2)”, in assay [1], the “Fold change in IL1β relative to no peptide LPS stimulated cells” value turned out to be 1.43 and the “IL1β Production” value is 1878 pg/mL. The “% Biofilm inhibition” value in assay [2] came to 68%. In assay [3], the “Fold increase” value is 5.7 and the “MCP1” value came out at 797 pg/mL.

For the substance “1002-V8: single substituted 1002 peptide (VQRWLIVVRIRK-NH2) [Peptide 1002-V8]”, in assay [1], the “Fold change in IL1β relative to no peptide LPS stimulated cells” value turned out to be 0.08 and the “IL1β Production” value was determined as 198 pg/mL. For the same substance, in assay [2], the “% Biofilm inhibition” value is listed as 56%. Besides, in assay [3], the “Fold increase” value is reported as 7.1 and the “MCP1” value stood at 1468.2 pg/mL.

With “HH2-Q10: single substituted HH2 peptide (VQLRIRVAVQRA-NH2)”, in assay [1], the “Fold change in IL1β relative to no peptide LPS stimulated cells” value was determined as 0.90 and the “IL1β Production” value turned out to be 1180 pg/mL. For the same substance, the “% Biofilm inhibition” value in assay [2] is listed as 61%. In assay [3], the “Fold increase” value was 31 and the “MCP1” value was 5057 pg/mL.

Regarding “1018-V9: single substituted 1018 peptide (VRLIVAVRVWRR-NH2) [Peptide 1018-V9]”, in assay [1], the “Fold change in IL1β relative to no peptide LPS stimulated cells” value worked out at 0.11 and the “IL1β Production” value is 142 pg/mL. Moreover, the “% Biofilm inhibition” value in assay [2] was 53%. For the same substance, in assay [3], the “Fold increase” value was found to be 105 and the “MCP1” value was determined as 17711 pg/mL.

Take “HH2-G11: single substituted HH2 peptide (VQLRIRVAVIGA-NH2)”: in assay [1], the “Fold change in IL1β relative to no peptide LPS stimulated cells” value is on record as 0.99 and the “IL1β Production” value is 1303 pg/mL. Further, in assay [2], the “% Biofilm inhibition” value came out at 72%. In assay [3], the “Fold increase” value is recorded as 2.0 and the “MCP1” value was found to be 177 pg/mL.

For the substance “1018-L2: single substituted 1018 peptide (VLLIVAVRIWRR-NH2) [Peptide 1018-L2]”, in assay [1], the “Fold change in IL1β relative to no peptide LPS stimulated cells” value is 0.32 and the “IL1β Production” value was determined as 426 pg/mL. The “% Biofilm inhibition” value in assay [2] is reported as 61%. For the same substance, in assay [3], the “Fold increase” value is 0.8 and the “MCP1” value was -35 pg/mL.

On to “HH2-K7: single substituted HH2 peptide (VQLRIRKAVIRA-NH2)”, for which, in assay [1], the “Fold change in IL1β relative to no peptide LPS stimulated cells” value is 1.36 and the “IL1β Production” value was 1782 pg/mL. In addition, the “% Biofilm inhibition” value in assay [2] amounted to 7%. Also, in assay [3], the “Fold increase” value was 1.7 and the “MCP1” value worked out at 117 pg/mL.

As for “1018-G5: single substituted 1018 peptide (VRLIGAVRIWRR-NH2) [Peptide 1018-G5]”, in assay [1], the “Fold change in IL1β relative to no peptide LPS stimulated cells” value is reported as 1.23 and the “IL1β Production” value is 1620 pg/mL. The “% Biofilm inhibition” value in assay [2] came out at 38%. Further, in assay [3], the “Fold increase” value is reported as 13 and the “MCP1” value turned out to be 2090 pg/mL.

Turning to “1018-Q3: single substituted 1018 peptide (VRQIVAVRIWRR-NH2) [Peptide 1018-Q3]”, in assay [1], the “Fold change in IL1β relative to no peptide LPS stimulated cells” value came to 1.03 and the “IL1β Production” value stood at 1359 pg/mL. Moreover, in assay [2], the “% Biofilm inhibition” value is given as 12%. Besides, in assay [3], the “Fold increase” value turned out to be 1.0 and the “MCP1” value was -2 pg/mL.

With “1002-L10: single substituted 1002 peptide (VQRWLIVWRLRK-NH2) [Peptide 1002-L10]”, in assay [1], the “Fold change in IL1β relative to no peptide LPS stimulated cells” value came out at 0.05 and the “IL1β Production” value came to 127 pg/mL. Also, in assay [2], the “% Biofilm inhibition” value turned out to be 65%. For the same substance, in assay [3], the “Fold increase” value stood at 3.0 and the “MCP1” value stood at 493.6 pg/mL.
